# Read-outs that look alike come from different tables or passages of the source.
# Key:
# in vivo = conditions: rat, iv; for k el / Vd / half-life: rat blood
# [1] = Excretion of 3H-Huperzine A after a single dose; format: in vivo
# [2] = Tissue distribution of 3H-Huperzine A radioactivity, iv; format: in vivo, rat
# Protocol: After giving 250 μCi/kg by iv injections of ^3 H-Huperzine A to the rats, they were sacrificed at different times by bloodletting and the radioactivity contents of the organs were measured.
# [3] = Plasma protein binding by equilibrium dialysis; format: in vitro ADME; conditions: mouse, plasma of normal mice
# From the text: Using equilibrium dialysis, it could be shown that the protein binding of ^3 H-Huperzine A in the plasma of normal mice was 17.2±4.1%.
# [4] = iv 375 μCi/kg, rat blood
# true cholinesterase = true cholinesterase (Rattus norvegicus, UniProt P37136)
# Chain of true cholinesterase (P37136-2 with tags, fused parts or gaps limits assumed): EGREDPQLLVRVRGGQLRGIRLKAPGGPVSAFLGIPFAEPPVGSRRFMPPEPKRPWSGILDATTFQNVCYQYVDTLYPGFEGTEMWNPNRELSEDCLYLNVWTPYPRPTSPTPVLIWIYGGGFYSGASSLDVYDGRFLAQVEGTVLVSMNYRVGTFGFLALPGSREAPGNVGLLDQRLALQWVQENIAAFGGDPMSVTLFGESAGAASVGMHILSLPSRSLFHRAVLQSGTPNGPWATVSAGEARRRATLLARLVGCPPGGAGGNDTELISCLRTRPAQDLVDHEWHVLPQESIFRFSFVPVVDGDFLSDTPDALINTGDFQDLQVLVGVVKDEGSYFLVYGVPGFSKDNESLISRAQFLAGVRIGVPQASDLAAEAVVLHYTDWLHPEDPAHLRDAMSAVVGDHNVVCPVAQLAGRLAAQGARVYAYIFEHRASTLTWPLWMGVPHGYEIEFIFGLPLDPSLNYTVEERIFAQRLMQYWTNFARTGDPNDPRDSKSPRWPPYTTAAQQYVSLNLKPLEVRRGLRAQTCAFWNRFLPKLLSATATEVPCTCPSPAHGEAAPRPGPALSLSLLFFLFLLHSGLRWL
# [5] = seven days after a single dose, 10080 min
structure (smiles),measurement,setting,value
C/C=C1\[C@H]2C=C(C)C[C@]1(N)c1ccc(=O)[nH]c1C2 [3H-Huperzine A],time of peak radioactivity in blood,"ig 375 μCi/kg, fasted 14 hours",45 to 60 min
same,radioactivity in the blood,seven hours after ig,still relatively high
same,radioactivity in the blood,twenty minutes after ig,had risen noticeably
same,clearance,in vivo,21.2 mL/min/kg
same,k el,"in vivo; K10, iv 375 μCi/kg",0.00034 s⁻¹
same,Vd,"in vivo; Vc, iv 375 μCi/kg",1.04 L/kg
same,Vd,"in vivo; Vd, iv 375 μCi/kg",3.66 L/kg
same,k el,"in vivo; phase rate constant β, iv 375 μCi/kg",9.67e-05 s⁻¹
same,half-life,"in vivo; t1/2α, iv 375 μCi/kg",5.4 min
same,half-life,"in vivo; t1/2β, iv 375 μCi/kg",120 min
same,eliminated in the urine,[1]; [5],86.1%
same,eliminated through feces,[1]; [5],5.5%
same,excreted drug appearing within twenty-four hours (urine),"[1]; within twenty-four hours, 1440 min",84.9%
same,radioactivity contents of the organs,[2]; 15 minutes after 250 μCi/kg iv,"the kidney and liver had the highest contents, the lungs, spleen and heart had less and the fat and brain had the least"
same,radioactivity in every organ examined,[2]; after twenty-four hours,only a minute quantity of radioactivity
same,brain distribution / blood-brain barrier,"[2]; rat, in vivo",can pass the blood-brain barrier
same,radioactivity contents of the organs,[2]; twelve hours after 250 μCi/kg iv,the radioactivity in each tissue was close to zero
same,radioactivity contents of the organs,[2]; two hours after 250 μCi/kg iv,the radioactivity in the other tissues was markedly lower while that in the brain rose slightly
same,fraction unbound,[3],0.828
same,K12,[4],0.0778
same,K21,[4],0.0366
same,phase rate constant α,[4],0.129 min⁻¹
C[N+](C)(C)CCO.[Cl-] [choline chloride],inhibition vs time response,true cholinesterase,The same response was noted
